Experimental data as given in US20260276643A1, “METHODS FOR PREDICTING AND IMPROVING THERAPEUTIC EFFICACY OF CANCER TREATMENTS AND METHODS FOR CANCER PROGNOSIS” (Università degli studi di Verona, priority 2023, published 2026).
Read-outs that look alike come from different tables or passages of the source.

Experiments:
[1] = test system: CLDN18.2 expression in cancer cells; conditions: WO2013/174510; Tureci 2019; cited from earlier work
[2] = test system: CLDN18 expression in DANG cells; experiment: CLDN18 exogenous regulation in vitro: CLDN18 staining of treated DANG cells; assay type: cell-based, human

O=c1[nH]cc(F)c(=O)[nH]1 [5-fluorouracil, 5-fluoro-1H-pyrimidine-2,4-dione]
CLDN18.2 expression levels in cancer cells [1]: upregulate existing CLDN18.2 expression levels in cancer cells

Nc1ccn([C@@H]2O[C@H](CO)[C@@H](O)C2(F)F)c(=O)n1 [Gemcitabine, 4-amino-1-(2-deoxy-2,2-difluoro-β-D-erythro-pentofuranosyl)pyrimidin-2(1H)-one]
CLDN18.2 expression levels in cancer cells [1]: upregulate existing CLDN18.2 expression levels in cancer cells
CLDN18 expression (mean fluorescence intensity, fold change on untreated) ([2]; DANG cells, 48 hours treatment, FIG. 7): induced CLDN18 expression in DANG cells

CCCCCCCCCCCCCC(=O)O[C@@H]1[C@@H](C)[C@@]2(O)[C@@H](C=C(CO)C[C@]3(O)C(=O)C(C)=C[C@@H]23)[C@@H]2C(C)(C)[C@]12OC(C)=O [PMA, Phorbol 12-myristate 13-acetate]
CLDN18 expression (mean fluorescence intensity, fold change on untreated) [2]: induced CLDN18 expression in DANG cells
CLDN18 expression (percentage of CLDN18+ cells) [2]: induced CLDN18 expression in DANG cells

NC(=O)Nc1sc(-c2ccc(F)cc2)cc1C(N)=O [TPCA-1]
CLDN18 expression (percentage of CLDN18+ cells) [2]: induced CLDN18 expression in DANG cells

O=C1[O][Pt]2([NH][C@@H]3CCCC[C@H]3[NH]2)[O]C1=O [oxaliplatin, [(1R,2R)-cyclohexane-1,2-diamine](ethanedioato-O,O′)platinum(II)]
CLDN18.2 expression levels in cancer cells [1]: upregulate existing CLDN18.2 expression levels in cancer cells

Verteporfin
CLDN18 expression (percentage of CLDN18+ cells) ([2]; DANG cells, extended experiment, FIG. 11): induced CLDN18 expression in DANG cells
